Source: patent US11299493B2, “Heterocyclic compounds and uses thereof” (NUVATION BIO INC., priority 2017, dated 2022)
Read-outs that look alike come from different tables or passages of the source.

How the values were obtained:
[1] = target: WEE1 kinase enzyme (Homo sapiens (Human), UniProt P30291); test: WEE1 IC50 determination, LanthaScreen Terbium Labeled TR-FRET kinase assay; format: biochemical; conditions: WEE1 enzyme 1 nM, ATP 10 μM, 1 h
Description: IC50 values of compounds against WEE1 kinase enzyme were determined by LanthaScreen™ Terbium Labeled TR-FRET assay. […] After 1 h, […] stop solution containing Terbium labeled antibody (4 nM) (#PV3529, Invitrogen, Life Technologies Grand Island, N.Y.) and EDTA (#E5134, Sigma, St-Louis, Mo.) (20 mM) in TR-FRET dilution buffer (#PV3574, Invitrogen, Life Technologies Grand Island, N.Y.) was added. Readings were taken in a Synergy Neo Plate reader (BioTek, Winooski) at single excitation of 340 nm and Dual emission at 495 nm and 520 nm respectively.
The % activity of test samples was calculated as (Sample−Min)*100/(Max−Min). [Max: DMSO control, complete reaction with enzyme & DMSO and Min: No enzyme & DMSO].

[2] = test system: A427 cells; test: Cytotoxicity assay (resazurin) in A427 cells; format: cell-based; conditions: read-out: Cell Viability IC50 A427
Description: Cells were allowed to grow at 37° C. for 24 hr in 5% CO2 environment (culture conditions) in a Nuaire incubator (humidified). Serially diluted test compounds (100 μL) within the desired testing concentration ranges were added to the culture plate were further incubated in culture conditions for 72 hr and 96 hr for A427 and A549 respectively. The experiment was terminated at the designated incubation time by replacing the medium with 100 μL of 1 mM of resazurin (R7017; Sigma) prepared in respective culture medium, and the plates were further incubated in culture conditions for 4-6 hr. Fluorescence was recorded using a multimodal plate reader (Biotek Synergy Neo) at an excitation wavelength of 535 nm and emission wavelength of 590 nm to obtain relative fluorescence units. Data analysis was done by subtracting the background fluorescence (only medium blank) value from each reading and then normalizing with the vehicle control (DMSO treated cells) to obtain percent survival/proliferation. Percent survival was then subtracted by 100 to get the percent inhibition of proliferation which was used to calculate IC50 values.

[3] = Homo sapiens, A-427, 72 h, A427, 72 hr

Chain of WEE1 kinase enzyme (P30291 whole entry): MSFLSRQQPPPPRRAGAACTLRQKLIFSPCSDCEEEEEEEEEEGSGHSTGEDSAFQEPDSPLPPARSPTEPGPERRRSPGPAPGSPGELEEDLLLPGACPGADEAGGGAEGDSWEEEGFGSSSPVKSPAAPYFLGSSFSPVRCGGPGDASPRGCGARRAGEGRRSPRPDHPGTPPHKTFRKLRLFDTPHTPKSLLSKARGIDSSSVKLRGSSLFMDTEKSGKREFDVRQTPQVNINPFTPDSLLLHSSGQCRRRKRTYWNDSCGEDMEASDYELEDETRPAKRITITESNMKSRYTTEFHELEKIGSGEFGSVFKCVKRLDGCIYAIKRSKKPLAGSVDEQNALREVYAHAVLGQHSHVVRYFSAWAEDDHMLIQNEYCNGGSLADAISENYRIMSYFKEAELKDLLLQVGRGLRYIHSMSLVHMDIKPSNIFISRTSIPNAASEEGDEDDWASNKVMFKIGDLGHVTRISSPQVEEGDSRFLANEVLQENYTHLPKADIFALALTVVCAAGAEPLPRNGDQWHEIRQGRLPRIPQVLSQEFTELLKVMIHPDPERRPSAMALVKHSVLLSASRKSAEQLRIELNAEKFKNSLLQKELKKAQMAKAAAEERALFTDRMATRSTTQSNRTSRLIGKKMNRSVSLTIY

| Structure (SMILES) | IC50 [1] | IC50 [2, 3] | IC50 ([2]; Homo sapiens, A-427, A427, 72 hr) | IC50 ([2]; A427, 72 hr) |
| --- | --- | --- | --- | --- |
| CCn1c(=O)c2cnc(Nc3ccc4c(c3)CNCC4)nc2n1-c1cccc(OC)n1 [Example 1.18] | 0.025 µM | 7.06 µM | – | – |
| CCn1c(=O)c2cnc(Nc3ccc4c(c3)CCNC4)nc2n1-c1cccc(OC)n1 [Example 1.23] | 0.04 µM | 3.21 µM | – | – |
| CCn1c(=O)c2cnc(Nc3ccc4c(c3)CNCC4)nc2n1-c1cccc(C(=O)NC)n1 [Example 1.25] | 0.099 µM | > 30 µM | – | – |
| CCn1c(=O)c2cnc(Nc3ccc4c(c3)CNCC4)nc2n1-c1cccc(NC)n1 [Example 1.27] | 0.01 µM | 4.14 µM | – | – |
| CCn1c(=O)c2cnc(Nc3ccc4c(c3)CNCC4)nc2n1-c1cccc(N2CCCC2=O)n1 [Example 1.31] | 0.005 µM | 1.32 µM | – | – |
| CCn1c(=O)c2cnc(Nc3ccc4c(c3)CNCC4)nc2n1-c1cccc(C(F)(F)F)n1 [Example 1.41] | 0.044 µM | 5.12 µM | – | – |
| CCn1c(=O)c2cnc(Nc3ccc4c(c3)CNCC4)nc2n1-c1cccc(NC(C)=O)n1 [Example 1.47] | 0.005 µM | 3.02 µM | – | – |
| CCn1c(=O)c2cnc(Nc3cccc4c3CCNC4)nc2n1-c1cccc(C(C)(C)O)n1 [Example 1.125] | > 5 µM | > 30 µM | – | – |
| CCn1c(=O)c2cnc(Nc3cnc4c(c3)CNCC4)nc2n1-c1cccc(C(C)(C)O)n1 [Example 1.127] | 0.058 µM | > 23 µM | – | – |
| CCn1c(=O)c2cnc(Nc3ccc4c(c3)CN(CCO)CC4)nc2n1-c1cccc(C(C)(C)O)n1 [Example 1.128] | 0.006 µM | 1.55 µM | – | – |
| CCn1c(=O)c2cnc(Nc3ccc4c(c3)CN(CC(=O)N(C)C)CC4)nc2n1-c1cccc(C(C)(C)O)n1 [Example 1.129] | 0.006 µM | 0.865 µM | – | – |
| CCn1c(=O)c2cnc(Nc3ccc4c(c3)CNCC4)nc2n1-c1ccccn1 [Example 1.130] | 0.018 µM | 9.07 µM | – | – |
| CCn1c(=O)c2cnc(Nc3ccc4c(c3)CNC4)nc2n1-c1cccc(C(C)(C)O)n1 [Example 1.132] | 0.004 µM | – | 1.68 µM | – |
| CCn1c(=O)c2cnc(Nc3ccc4c(c3)CC(N(C)C)C4)nc2n1-c1cccc(C(C)(C)O)n1 (stereo not shown) [Example 1.133] | 0.006 µM | 0.583 µM | – | – |
| CCn1c(=O)c2cnc(Nc3ccc4c(c3)CNCC4)nc2n1-c1ccnc(C(C)(C)C)c1 [Example 1.134] | 0.009 µM | 0.82 µM | – | – |
| CCn1c(=O)c2cnc(Nc3ccc4c(c3)CC(N(C)C)CC4)nc2n1-c1cccc(C(C)(C)O)n1 (stereo not shown) [Example 1.135] | 0.02 µM | 0.44 µM | – | – |

| Structure (SMILES) | IC50 [1] | IC50 [2, 3] | IC50 ([2]; Homo sapiens, A-427, A427, 72 hr) | IC50 ([2]; A427, 72 hr) |
| --- | --- | --- | --- | --- |
| CCn1c(=O)c2cnc(Nc3ccc4c(c3)CCNC4)nc2n1-c1ccnc(C(C)(C)C)c1 [Example 1.136] | 0.007 µM | 1.09 µM | – | – |
| CCn1c(=O)c2cnc(Nc3cnc4c(c3)CNCC4)nc2n1-c1cccc(C(C)(C)C)n1 [Example 1.141] | 0.024 µM | 2.97 µM | – | – |
| CCn1c(=O)c2cnc(Nc3ccc4c(c3)CNC4)nc2n1-c1cccc(C(C)(C)C)n1 [Example 1.142] | 0.004 µM | 0.39 µM | – | – |
| C=CCn1c(=O)c2cnc(Nc3ccc4c(c3)CCNC4)nc2n1-c1ccnc(C(C)(C)C)c1 [Example 1.157] | 0.005 µM | 0.46 µM | – | – |
| C=CCn1c(=O)c2cnc(Nc3ccc4c(c3)CNCC4)nc2n1-c1ccnc(C(C)(C)C)c1 [Example 1.158] | 0.004 µM | 0.2 µM | – | – |
| CC(C)(C)c1cc(-n2c3nc(Nc4ccc5c(c4)CCNC5)ncc3c(=O)n2C2CC2)ccn1 [Example 1.159] | 0.03 µM | 3.32 µM | – | – |
| CC(C)(C)c1cc(-n2c3nc(Nc4ccc5c(c4)CNCC5)ncc3c(=O)n2C2CC2)ccn1 [Example 1.160] | 0.03 µM | 3.98 µM | – | – |
| CC(C)n1c(=O)c2cnc(Nc3ccc4c(c3)CNCC43CC3)nc2n1-c1ccnc(C(C)(C)C)c1 [Example 1.161] | 0.004 µM | 0.24 µM | – | – |
| CC(C)n1c(=O)c2cnc(Nc3ccc4c(c3)CNCC4(C)C)nc2n1-c1ccnc(C(C)(C)C)c1 [Example 1.162] | 0.011 µM | 0.385 µM | – | – |
| CC(C)n1c(=O)c2cnc(Nc3ccc4c(c3)CC(N(C)C)C4)nc2n1-c1ccnc(C(C)(C)C)c1 (stereo not shown) [Example 1.164] | 0.008 µM | 0.485 µM | – | – |
| CC(C)n1c(=O)c2cnc(Nc3ccc4c(c3)CNC4)nc2n1-c1ccnc(C(C)(C)C)c1 [Example 1.165] | 0.014 µM | 1.57 µM | – | – |
| CC(C)n1c(=O)c2cnc(Nc3ccc4c(c3)CNCC4)nc2n1-c1ccc(F)cc1 [Example 1.167] | 0.041 µM | 2.06 µM | – | – |
| CC(C)(F)c1cc(-n2c3nc(Nc4ccc5c(c4)CCNC5(C)C)ncc3c(=O)n2C2CC2)ccn1 [Example 2.555] | 0.153 µM | – | – | – |
| CC(C)(C)c1cc(-n2c3nc(Nc4ccc5c(c4)CNCC5(C)C)ncc3c(=O)n2C2CC2)ccn1 [Example 2.600] | 0.025 µM | – | – | – |
| CC(C)n1c(=O)c2cnc(Nc3ccc4c(c3)CCNC4)cc2n1-c1ccnc(C(C)(C)C)c1 [Example 2.732] | 0.179 µM | – | – | – |
| CC(C)n1c(=O)c2cnc(Nc3ccc4c(c3)CNCC4)cc2n1-c1ccnc(C(C)(C)C)c1 [Example 2.744] | – | 10.4 µM | – | – |

Further lines, with some results ahead:

| IC50 [1] | Structure (SMILES) | IC50 [2, 3] | IC50 ([2]; Homo sapiens, A-427, A427, 72 hr) | IC50 ([2]; A427, 72 hr) |
| --- | --- | --- | --- | --- |
| 0.023 µM | CC(C)(O)c1cccc(-n2c3nc(Nc4ccc5c(c4)CCNC5)ncc3c(=O)n2C2CC2)n1 [Example 1.24] | 6.03 µM | – | – |
| 0.011 µM | CC(C)n1c(=O)c2cnc(Nc3ccc4c(c3)CCNC4)nc2n1-c1cccc(C(C)(C)O)n1 [Example 1.69] | 0.485 µM | – | – |
| 0.015 µM | CCn1c(=O)c2cnc(Nc3ccc4c(c3)CNCC43CC3)nc2n1-c1cccc(C(C)(C)O)n1 [Example 1.70] | 0.64 µM | – | – |
| < 0.001 µM | CCn1c(=O)c2cnc(Nc3ccc4c(c3)CNCC4)nc2n1-c1cccc(C(C)(C)C)n1 [Example 1.126] | 0.275 µM | – | – |
| 0.0006 µM | CCn1c(=O)c2cnc(Nc3ccc4c(c3)CCNC4)nc2n1-c1cccc(C(C)(C)C)n1 [Example 1.131] | 0.285 µM | – | – |
| 0.004 µM | CC(C)n1c(=O)c2cnc(Nc3ccc4c(c3)CNCC4)nc2n1-c1ccnc(C(C)(C)C)c1 [Example 1.137] | 0.415 µM | – | – |
| 0.004 µM | CC(C)n1c(=O)c2cnc(Nc3ccc4c(c3)CNCC4)nc2n1-c1cccc(C(C)(C)F)n1 [Example 1.139] | 0.355 µM | – | – |
| 0.0006 µM | CC(C)n1c(=O)c2cnc(Nc3ccc4c(c3)CNCC4)nc2n1-c1cccc(C(C)(C)C)n1 [Example 1.144] | 0.26 µM | – | – |
| 0.003 µM | CC(C)n1c(=O)c2cnc(Nc3ccc4c(c3)CCNC4)nc2n1-c1cccc(C(C)(C)C)n1 [Example 1.145] | 0.255 µM | – | – |
| 0.007 µM | CC(C)(C)c1cccc(-n2c3nc(Nc4ccc5c(c4)CCNC5)ncc3c(=O)n2C2CC2)n1 [Example 1.147] | – | – | 0.37 µM |
| 0.002 µM | CC(C)n1c(=O)c2cnc(Nc3ccc4c(c3)CNCC4)nc2n1-c1cccc(C2CC2)n1 [Example 1.148] | 1.08 µM | – | – |
| 0.003 µM | CC(C)n1c(=O)c2cnc(Nc3ccc4c(c3)CCNC4)nc2n1-c1cccc(C2CC2)n1 [Example 1.149] | 1.13 µM | – | – |
| 0.013 µM | CC(n1c(=O)c2cnc(Nc3ccc4c(c3)CNCC4)nc2n1-c1cccc(C(C)(C)C)n1)C(F)(F)F (stereo not shown) [Example 1.150] | 3 µM | – | – |
| 2.54 µM | CC(C)(C)c1cccc(-n2c3nc(Nc4ccc5c(c4)CNCC5)ncc3c(=O)n2C(C)(C)C)n1 [Example 1.151] | 3.38 µM | – | – |
| < 0.001 µM | CC(C)(C)c1cccc(-n2c3nc(Nc4ccc5c(c4)CNCC5)ncc3c(=O)n2CC(F)(F)F)n1 [Example 1.152] | 1.02 µM | – | – |
| 0.016 µM | CC(CO)n1c(=O)c2cnc(Nc3ccc4c(c3)CNCC4)nc2n1-c1cccc(C(C)(C)C)n1 (stereo not shown) [Example 1.153] | 2.54 µM | – | – |
| 0.008 µM | COCCn1c(=O)c2cnc(Nc3ccc4c(c3)CNCC4)nc2n1-c1cccc(C(C)(C)C)n1 [Example 1.154] | 2.37 µM | – | – |
| 0.002 µM | CC(C)n1c(=O)c2cnc(Nc3ccc4c(c3)CCNC4)nc2n1-c1cccc(C(C)(C)C)c1 [Example 1.155] | 1.98 µM | – | – |
| 0.001 µM | CC(C)n1c(=O)c2cnc(Nc3ccc4c(c3)CNCC4)nc2n1-c1cccc(C(C)(C)C)c1 [Example 1.156] | 1.77 µM | – | – |
| 0.015 µM | CC(C)n1c(=O)c2cnc(Nc3ccc4c(c3)CCNC4)nc2n1-c1ccnc(C(C)(C)F)c1 [Example 1.163] | 0.72 µM | – | – |
| 0.029 µM | CC(C)n1c(=O)c2cnc(Nc3ccc4c(c3)CCNC4)nc2n1-c1ccc(F)cc1 [Example 1.166] | 4.13 µM | – | – |
| 0.048 µM | CC(C)n1c(=O)c2cnc(Nc3ccc4c(c3)CCNC4)nc2n1-c1ccn(C(C)(C)C)n1 [Example 2.454] | – | – | – |
